Source: US20140235544A1, “DISEASE TREATMENT VIA ANTIMICROBIAL PEPTIDES OR THEIR INHIBITORS” (priority 2013, published 2014)

Legend:
[1] = system: psoriatic lesions in a human subject; assay: Human in-vivo psoriatic lesion treatment
Procedure: Human in-vivo psoriatic lesion treatment: Cathelicidin 10 ug/ml or human beta defensin-2 diluted in PBS containing 0.1% BSA, or buffer carrier was applied to lesions in a human subject in a blind trial.

[2] = Infection and immunity, November 1999; cited from earlier work
BETATC beta cell line = assay: Thymidine incorporation cell proliferation assay; format: cell-based, mouse; conditions: 2 microgram/ml, 3.5 days
Procedure: Murine beta cell line were treated for 3.5 days with LL-37 at 2 microgram/ml (red/dark bars) and compared to PBS control ([…]). Cell proliferation was estimated by measuring [3(H)]-thymidine incorporation and was expressed as percent of control untreated cells. A representative experiment is shown.
The antimicrobial peptides human cathelicidin LL-37: […] was obtained from AnaSpec, USA (Catalogue numbers: 61302). Cathelicidin at 2 ug/ml was added to the plate and compared with control.
Cell proliferation was evaluated by measuring [3(H)]-thymidine incorporation into DNA. Cells were pulsed with [3(H)]-thymidine (1 microcurie/mL, ICN, Irvine, Calif.) for 1 hour, at 37 degrees centigrade. After incubation, cells were washed 3 times with PBS, incubated for 15 minutes at room temperature in 5% trichloroacetic acid and solubilized in 1% triton X-100. The radioactivity incorporated into the cells was counted in the [3(H)]-window of a Tricarb liquid scintillation counter. Mean values were determined from measurements of triplicate samples under each experimental condition for each experiment. Thymidine incorporation was determined as number of disintegrations per minute (DPM) per mg of protein.

[3] = 10 ug/ml applied to lesion, 5 days treatment

| Substance | change of skin psoriatic lesion [1, 3] | half-life in blood of humans [2] | beta cell proliferation ([3(H)]-thymidine incorporation) vs PBS control (BETATC beta cell line) | change of skin psoriatic lesion ([1]; applied to lesion, seven week course of treatment) |
| --- | --- | --- | --- | --- |
| LLGDFFRKSKEKIGKEFKRIVQRIKDFLRNLVPRTES [LL-37] | slight improvement | approximately 3.4 days | significant BETATC beta cell line proliferation |  |
| SKEKIGKEFKRIVQRIKDFLRNLVPRTES (listed as Homo sapiens) [SK29, cathelicidin fragment, 29 amino acids] | slight improvement |  |  |  |
| human beta defensin-2 [reference compound] |  |  |  | worsening |
